Source: patent US5210193A, “Piperazine derivatives” (American Cyanamid Company, priority 1990, dated 1993)
In brackets after ≈: the same amount, converted by molar mass. Several values for one entry are separate records, joined by “and”; a condition that tells them apart may be missing. Equal entries are not always repeated. Where two headings read alike, the source gives them in different places.

Key:
Citrobacter div. K 82-24 = assay: in vitro antibacterial MIC, agar plate dilution; type: cell-based; settings: Citrobacter, DIV.K8224, 18 h, 35° C., read-out: MIC
In short: (§1)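 Agar plate dilution on Mueller-Hinton agar, inoculum approximately 10^4 CFU per organism applied with a Steers replicator. MIC (mcg/ml) is the lowest compound concentration inhibiting visible growth after 18 hours at 35° C.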

[1] = test system: Enterobacter cloacae VGH 84-39; assay: in vitro antibacterial MIC, agar plate dilution; type: cell-based; settings: Enterobacter cloacae, VGH8439, 18 h, 35° C., read-out: MIC
In short: as §1

[2] = test system: Morganella morganii CMC 84-37; assay: in vitro antibacterial MIC, agar plate dilution; type: cell-based; settings: 35° C.
In short: as §1

[3] = test system: Morganella morganii VHG 84-12; assay: in vitro antibacterial MIC, agar plate dilution; type: cell-based; settings: Morganella morganii, VHG8412, 18 h, Morganella morganii VHG 84-12 (VGH 84-12 for Example 131), 35° C., read-out: MIC
In short: as §1

[4] = test system: Pseudomonas aeruginosa VGH 84-3; assay: in vitro antibacterial MIC, agar plate dilution; type: cell-based; settings: Pseudomonas aeruginosa, VGH843, 18 h, 35° C., read-out: MIC
In short: as §1

[5] = test system: Serratia marcescens CMC 83-74; assay: in vitro antibacterial MIC, agar plate dilution; type: cell-based; settings: Serratia marcescens, CMC8374, 18 h, 35° C., read-out: MIC
In short: as §1

[6] = test system: Staphylococcus aureus Smith; assay: in vitro antibacterial MIC, agar plate dilution; type: cell-based; settings: 35° C.
In short: as §1

[7] = test system: Streptococcus faecalis CMC 83-120; assay: in vitro antibacterial MIC, agar plate dilution; type: cell-based; settings: Enterococcus faecalis, CMC83120, 18 h, 35° C., read-out: MIC
In short: as §1

[8] = test system: Escherichia coli ATCC 25922; assay: in vitro antibacterial MIC, agar plate dilution; type: cell-based; settings: 35° C.
In short: as §1

[9] = test system: Enterobacter cloacae MOR 83-30; assay: in vitro antibacterial MIC, agar plate dilution; type: cell-based; settings: MOR8330, 18 hours, 35° C.
In short: as §1

Escherichia coli 311 = assay: in vivo antibacterial activity of Example 131, survival of infected mice (Table IV); set-up: species or system Charles River CD-1 female mice
Experimental: (§2) The in vivo antibacterial activity of 1-cyclopropyl-6-fluoro-7-[3-(fluoromethyl)-1-piperazinyl]-1,4-dihydro-4-oxo-3-quinolinecarboxylic acid (Example 131) was established in the following test.
(§3) Charles River CD-1 female mice, weighing 20±2 g were infected with either Staphylococcus aureus Smith or Escherichia coli 311. A single oral or subcutaneous dose of 1-cyclopropyl-6-fluoro-7-[3-(fluoromethyl)-1-piperazinyl]-1,4-dihydro-4-oxo-3-quinolinecarboxylic acid was administered 1/2 hour after infection. […]

[10] = test system: Staphylococcus aureus Smith; assay: as above; set-up: species or system Charles River CD-1 female mice
Experimental: as §2, §3

[11] = test system: Acinetobacter calcoaceticus MOR 84-43; assay: in vitro antibacterial MIC, agar plate dilution; type: cell-based; settings: MOR8443, 18 hours, 35° C., read-out: MIC
In short: as §1

[12] = test system: Enterobacter aerogenes VGH 84-36; assay: in vitro antibacterial MIC, agar plate dilution; type: cell-based; settings: Klebsiella aerogenes, VGH8436, 18 hours, 35° C., read-out: MIC
In short: as §1

[13] = test system: Enterobacter cloacae VGH 84-37; assay: in vitro antibacterial MIC, agar plate dilution; type: cell-based; settings: Enterobacter cloacae, VGH8437, 18 h, 35° C., read-out: MIC
In short: as §1

Escherichia coli NAR 311 = assay: in vitro antibacterial MIC, agar plate dilution; type: cell-based; settings: NAR311, 18 hours, 35° C., read-out: MIC
In short: as §1

[14] = test system: Klebsiella oxytoca MOR 84-28; assay: in vitro antibacterial MIC, agar plate dilution; type: cell-based; settings: MOR8428, 18 hours, 35° C.
In short: as §1

Klebsiella pneumoniae AD = assay: in vitro antibacterial MIC, agar plate dilution; type: cell-based; settings: Klebsiella pneumoniae, 18 h, 35° C., read-out: MIC
In short: as §1

[15] = test system: Klebsiella pneumoniae MOR 84-4; assay: in vitro antibacterial MIC, agar plate dilution; type: cell-based; settings: Klebsiella pneumoniae, MOR844, 18 h, 35° C., read-out: MIC
In short: as §1

[16] = test system: Morganella morganii VGH 84-11; assay: in vitro antibacterial MIC, agar plate dilution; type: cell-based; settings: VGH8411, 18 hours, 35° C., read-out: MIC
In short: as §1

[17] = test system: Serratia marcescens F 0-35; assay: in vitro antibacterial MIC, agar plate dilution; type: cell-based; settings: Serratia marcescens, F035, 18 h, 35° C., read-out: MIC
In short: as §1

[18] = test system: Staphylococcus aureus CMC 83-128; assay: in vitro antibacterial MIC, agar plate dilution; type: cell-based; settings: CMC83128, 18 hours, 35° C., read-out: MIC
In short: as §1

[19] = test system: Staphylococcus aureus VGH 84-46; assay: in vitro antibacterial MIC, agar plate dilution; type: cell-based; settings: Staphylococcus aureus, VGH8446, 18 h, 35° C., read-out: MIC
In short: as §1

[20] = test system: Staphylococcus epidermidis CMC 83-135; assay: in vitro antibacterial MIC, agar plate dilution; type: cell-based; settings: CMC83135, 18 hours, 35° C., read-out: MIC
In short: as §1

[21] = test system: Staphylococcus epidermidis IO 83-58; assay: in vitro antibacterial MIC, agar plate dilution; type: cell-based; settings: IO8358, 18 hours, 35° C., read-out: MIC
In short: as §1

[22] = test system: Staphylococcus epidermidis VGH 84-40; assay: in vitro antibacterial MIC, agar plate dilution; type: cell-based; settings: VGH8440, 18 hours, 35° C., read-out: MIC
In short: as §1

[23] = test system: Streptococcus faecalis ATTC 29212; assay: in vitro antibacterial MIC, agar plate dilution; type: cell-based; settings: Enterococcus faecalis, ATTC29212, 18 hours, 35° C., read-out: MIC
In short: as §1

[24] = Morganella morganii, CMC8437, 18 h, read-out: MIC
[25] = Staphylococcus aureus, 18 h, read-out: MIC
[26] = Escherichia coli, ATCC25922, 18 h, read-out: MIC
[27] = subcutaneous, 0.5 mg/kg single dose
[28] = subcutaneous, 1 mg/kg single dose
[29] = subcutaneous, 2 mg/kg single dose

| SMILES | MIC (Citrobacter div. K 82-24) [µg/mL] | MIC [1] [µg/mL] | MIC [2, 24] [µg/mL] | MIC [3] [µg/mL] | MIC [4] [µg/mL] | MIC [5] [µg/mL] | MIC [6, 25] [µg/mL] | MIC [7] [µg/mL] | MIC [8, 26] [µg/mL] | other results |
| --- | --- | --- | --- | --- | --- | --- | --- | --- | --- | --- |
| CCn1cc(C(=O)O)c(=O)c2cc(F)c(N3CCNC(c4ccncc4)C3)cc21 (stereo not drawn) [Example 123] | 4 (≈ 10.1 µM) | 4 (≈ 10.1 µM) |  | 8 (≈ 20.2 µM) | > 16 | > 16 | 0.5 (≈ 1.26 µM) | > 16 | 1 (≈ 2.52 µM) |  |
| O=C(O)c1cn(C2CC2)c2cc(N3CCNC(CF)C3)c(F)cc2c1=O (stereo not drawn) [Example 131, 1-Cyclopropyl-6-fluoro-7-[3-(fluoromethyl)-1-piperazinyl]-1,4-dihydro-4-oxo-3-quinolinecarboxylic acid] | 0.06 (≈ 0.165 µM) | 0.06 (≈ 0.165 µM) | 0.5 (≈ 1.38 µM) | 0.12 (≈ 0.33 µM) | 8 (≈ 22 µM) | 4 (≈ 11 µM) | 0.06 (≈ 0.165 µM) | 2 (≈ 5.5 µM) | 0.015 (≈ 0.0413 µM) | MIC [9]: 0.12 µg/mL (≈ 0.33 µM); Survival Ratio 7 Days After Infection (Escherichia coli 311; oral, 0.12 mg/kg single dose): 0/10; Survival Ratio 7 Days After Infection (Escherichia coli 311; oral, 0.25 mg/kg single dose): 1/10; Survival Ratio 7 Days After Infection (Escherichia coli 311; oral, 0.5 mg/kg single dose): 3/10; Survival Ratio 7 Days After Infection (Escherichia coli 311; oral, 1 mg/kg single dose): 7/10; Survival Ratio 7 Days After Infection (Escherichia coli 311; oral, 2 mg/kg single dose): 10/10; Survival Ratio 7 Days After Infection (Escherichia coli 311; subcutaneous, 0.12 mg/kg single dose): 0/10; Survival Ratio 7 Days After Infection (Escherichia coli 311; subcutaneous, 0.25 mg/kg single dose): 2/10; Survival Ratio 7 Days After Infection (Escherichia coli 311; [27]): 7/10; Survival Ratio 7 Days After Infection (Escherichia coli 311; [28]): 10/10; Survival Ratio 7 Days After Infection (Escherichia coli 311; [29]): 10/10; Survival Ratio 7 Days After Infection ([10]; oral, 1 mg/kg single dose): 0/15; Survival Ratio 7 Days After Infection ([10]; oral, 2 mg/kg single dose): 2/15; Survival Ratio 7 Days After Infection ([10]; oral, 4 mg/kg single dose): 10/15; Survival Ratio 7 Days After Infection ([10]; oral, 8 mg/kg single dose): 15/15; Survival Ratio 7 Days After Infection [10, 27]: 0/15; Survival Ratio 7 Days After Infection [10, 28]: 2/15; Survival Ratio 7 Days After Infection [10, 29]: 14/15; Survival Ratio 7 Days After Infection ([10]; subcutaneous, 4 mg/kg single dose): 15/15 |
| O=C(O)c1cn(C2CC2)c2cc(N3CCNC(c4ccco4)C3)c(F)cc2c1=O (stereo not drawn) [Example 62, 1-Cyclopropyl-6-fluoro-7-[3-(2-furanvl)-1-piperazinyl]-1,4-dihydro-4-oxo-3-quinolinecarboxylic acid] | 0.12 (≈ 0.302 µM) | 0.12 (≈ 0.302 µM) |  | 0.5 (≈ 1.26 µM) | > 16 | 16 (≈ 40.3 µM) |  | 1 (≈ 2.52 µM) |  | MIC [11]: 0.06 µg/mL (≈ 0.151 µM); MIC [12]: 0.12 µg/mL (≈ 0.302 µM); MIC [13]: 0.03 µg/mL (≈ 0.0755 µM); MIC ([8]; 18 hours): 0.03 µg/mL and 0.06 µg/mL; MIC (Escherichia coli NAR 311): 0.5 µg/mL (≈ 1.26 µM); MIC [14]: 0.06 µg/mL (≈ 0.151 µM); MIC (Klebsiella pneumoniae AD): 0.12 µg/mL (≈ 0.302 µM); MIC [15]: 0.12 µg/mL (≈ 0.302 µM); MIC ([2]; 18 hours): 0.06 µg/mL (≈ 0.151 µM); MIC [16]: 0.06 µg/mL (≈ 0.151 µM); MIC [17]: 0.06 µg/mL (≈ 0.151 µM); MIC [18]: 0.03 µg/mL (≈ 0.0755 µM); MIC ([6]; 18 hours): 0.015 µg/mL (≈ 0.0377 µM); MIC [19]: 0.015 µg/mL (≈ 0.0377 µM); MIC [20]: 0.03 µg/mL (≈ 0.0755 µM); MIC [21]: 0.015 µg/mL (≈ 0.0377 µM); MIC [22]: 0.03 µg/mL (≈ 0.0755 µM); MIC [23]: 0.25 µg/mL (≈ 0.629 µM) |

More lines, main results first:

| MIC (Citrobacter div. K 82-24) [µg/mL] | MIC [1] [µg/mL] | MIC [2, 24] [µg/mL] | MIC [3] [µg/mL] | MIC [4] [µg/mL] | MIC [5] [µg/mL] | MIC [6, 25] [µg/mL] | MIC [7] [µg/mL] | MIC [8, 26] [µg/mL] | SMILES | other results |
| --- | --- | --- | --- | --- | --- | --- | --- | --- | --- | --- |
| 0.002 (≈ 0.00524 µM) | 0.004 (≈ 0.0105 µM) | 0.03 (≈ 0.0787 µM) | 0.06 (≈ 0.157 µM) | 8 (≈ 21 µM) | 4 (≈ 10.5 µM) | 0.25 (≈ 0.656 µM) | 2 (≈ 5.24 µM) |  | CN1CCN(c2c(F)c(F)c3c(=O)c(C(=O)O)cn(C4CC4)c3c2F)CC1 [Example 111, 1Cyclopropyl-5,6,8-trifluoro-1,4-dihydro-7-(4-methyl-1-piperazinyl) -4-oxo-3-quinolinecarboxylic acid] |  |
| 0.25 (≈ 0.629 µM) | 0.5 (≈ 1.26 µM) | 1 (≈ 2.52 µM) | 4 (≈ 10.1 µM) | > 16 | > 16 | 0.12 (≈ 0.302 µM) | 5 (≈ 12.6 µM) |  | O=C(O)c1cn(C2CC2)c2cc(N3CCNC(c4cc[nH]n4)C3)c(F)cc2c1=O (stereo not drawn) [Example 121, 1-Cyclopropyl-6-fluoro-1,4-dihydro-4-oxo-7-[3-(1H-pyrazol-3-yl)-1-piperazinyl]-3-quinolinecarboxylic acid] |  |
| > 16 | > 16 |  | > 16 | > 16 | > 16 | 0.25 (≈ 0.605 µM) | > 16 | 8 (≈ 19.3 µM) | CCn1cc(C(=O)O)c(=O)c2cc(F)c(N3CCN(C)C(c4ccn(C)n4)C3)cc21 (stereo not drawn) [Example 109, 1-Ethyl-6-fluoro-1,4-dihydro-7-[4-methyl-3-(1-methyl-1H-pyrazol-3-yl) -1-piperazinyl]-4-oxo-3-quinolinecarboxylic acid] |  |
